According to ChEMBL document CHEMBL1143352, “Structural evolutions of salicylaldoximes as selective agonists for estrogen receptor beta” (J Med Chem, 2009):
pEC50, pKi: −log10 of the molar value. Where “and” joins values, the source holds several entries; their conditions need not be identical. Identical values can stand only once.

Assays:
Homo sapiens = organism: Homo sapiens; experiment: Ratio of relative binding affinity for full-length human estrogen receptor beta to ratio of relative binding affinity for full length human estrogen receptor alpha
Estrogen receptor beta [1] = target: T1, Estrogen receptor beta (Homo sapiens, UniProt Q92731); experiment: Displacement of [3H]estradiol from full-length human estrogen receptor beta by radiometric assay relative to estradiol
T1 sequence (Q92731 whole entry): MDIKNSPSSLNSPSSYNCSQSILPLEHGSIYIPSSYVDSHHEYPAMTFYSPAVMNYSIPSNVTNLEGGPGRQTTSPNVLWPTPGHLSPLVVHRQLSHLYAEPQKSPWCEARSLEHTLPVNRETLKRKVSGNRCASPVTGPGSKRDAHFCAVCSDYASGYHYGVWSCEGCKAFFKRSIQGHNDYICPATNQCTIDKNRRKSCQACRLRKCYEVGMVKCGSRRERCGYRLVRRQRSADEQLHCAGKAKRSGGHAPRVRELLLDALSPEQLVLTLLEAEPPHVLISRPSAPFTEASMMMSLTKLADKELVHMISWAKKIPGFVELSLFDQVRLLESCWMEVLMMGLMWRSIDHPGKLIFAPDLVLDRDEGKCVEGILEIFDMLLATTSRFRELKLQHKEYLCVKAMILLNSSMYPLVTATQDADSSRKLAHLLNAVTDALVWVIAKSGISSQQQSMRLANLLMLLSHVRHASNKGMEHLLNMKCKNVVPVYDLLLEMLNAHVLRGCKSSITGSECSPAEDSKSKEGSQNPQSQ

Estrogen receptor beta [2] = target: T1, Estrogen receptor beta; experiment: Agonist activity at full-length human estrogen receptor beta expressed in human HEC1 cells assessed as transcriptional activation after 24 hrs by luciferase reporter gene assay relative to estradiol; assay type: functional, cell-based; details: HEC-1
Estrogen receptor beta [3] = target: T1, Estrogen receptor beta
Estrogen receptor = target: T2, Estrogen receptor (Homo sapiens, UniProt P03372)
T2 sequence (P03372 whole entry): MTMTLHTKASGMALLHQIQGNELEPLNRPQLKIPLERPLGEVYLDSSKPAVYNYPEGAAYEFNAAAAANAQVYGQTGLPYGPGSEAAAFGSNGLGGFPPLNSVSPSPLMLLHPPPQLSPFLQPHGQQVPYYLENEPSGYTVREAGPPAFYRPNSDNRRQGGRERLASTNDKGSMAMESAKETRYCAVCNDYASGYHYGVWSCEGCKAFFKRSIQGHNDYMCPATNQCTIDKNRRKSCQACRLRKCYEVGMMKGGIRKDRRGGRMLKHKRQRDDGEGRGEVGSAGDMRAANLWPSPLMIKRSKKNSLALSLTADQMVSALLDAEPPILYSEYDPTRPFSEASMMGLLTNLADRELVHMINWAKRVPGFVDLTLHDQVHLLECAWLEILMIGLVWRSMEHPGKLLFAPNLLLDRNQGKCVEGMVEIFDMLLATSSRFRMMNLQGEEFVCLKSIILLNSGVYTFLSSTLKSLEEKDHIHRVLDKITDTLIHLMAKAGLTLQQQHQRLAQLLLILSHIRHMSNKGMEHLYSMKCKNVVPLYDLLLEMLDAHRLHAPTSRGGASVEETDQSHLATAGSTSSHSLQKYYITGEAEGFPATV
Description: Agonist activity at full-length human estrogen receptor alpha expressed in human HEC1 cells assessed as transcriptional activation after 24 hrs by luciferase reporter gene assay

Q: For COc1ccc(-c2ccc(O)c(/C=N/O)c2)cc1F, which Ratio (Homo sapiens) is on record?
A: 1.9

Q: What about the Activity (Estrogen receptor beta [1]) of the same compound?
A: 0.013%

Q: For COc1ccc(-c2ccc(/C(C)=N/O)c(O)c2Cl)cc1F, which Activity (Estrogen receptor beta [1]) is on record?
A: 0.002%

Q: With O/N=C/c1ccc(-c2ccc(O)cc2)cc1O as the compound, how does the Ratio (Homo sapiens) read?
A: 79

Q: And the Activity (Estrogen receptor beta [1])?
A: 0.553%

Q: For C/C(=N\O)c1ccc(-c2ccc(O)c(F)c2)c(Cl)c1O, which Ratio (Homo sapiens) is on record?
A: 13

Q: And the Activity (Estrogen receptor beta [1])?
A: 0.077%

Q: With COc1ccc(-c2ccc(/C=N/O)c(O)c2Cl)cc1F as the compound, how does the Ratio (Homo sapiens) read?
A: 1.8

Q: And the Activity (Estrogen receptor beta [1])?
A: 0.011%

Q: With COc1ccc(-c2ccc(/C(C)=N/O)c(O)c2Cl)cc1 as the compound, how does the Activity (Estrogen receptor beta [1]) read?
A: 0.002%

Q: With C/C(=N\O)c1ccc(-c2ccc(O)cc2)c(Cl)c1O as the compound, how does the Ratio (Homo sapiens) read?
A: 10

Q: And the Activity (Estrogen receptor beta [1])?
A: 0.123%

Q: How did the Ratio (Homo sapiens) turn out when O/N=C/c1ccc(-c2ccc(O)c(F)c2)c(Cl)c1O was run?
A: 62

Q: And the Activity (Estrogen receptor beta [1])?
A: 7.01%

Q: What about the pKi (Estrogen receptor beta [1]) of the same compound?
A: 8.15

Q: And the Activity (Estrogen receptor beta [2])?
A: > 85%

Q: What about the pEC50 (Estrogen receptor beta [3]) of the same compound?
A: 8.32

Q: And the pEC50 (Estrogen receptor)?
A: 7.72

Q: What does the source list for O/N=C/c1cc(-c2ccc(O)c(F)c2)ccc1O?
A: Ratio (Homo sapiens): 46; Activity (Estrogen receptor beta [1]): 0.97%

Q: For O/N=C/c1cc(-c2ccc(O)cc2)ccc1O, which Ratio (Homo sapiens) is on record?
A: 41

Q: What about the Activity (Estrogen receptor beta [1]) of the same compound?
A: 2.64%

Q: And the pEC50 (Estrogen receptor beta [3])?
A: 8.00

Q: And the pEC50 (Estrogen receptor)?
A: 7.77 and 8.00

Q: COc1ccc(-c2ccc(O)c(/C=N/O)c2)cc1 was tested. Which Ratio (Homo sapiens) did it give?
A: 3.7

Q: And the Activity (Estrogen receptor beta [1])?
A: 0.011%
